Measured values reported in US10363239B2, “Method for inhibiting growth of cancer cells” (Pain Therapeutics, Inc., priority 2013, dated 2019).

Test system: mu opiate receptor (MOR)
Experiment: MOR agonist activity using [35S]GTPγS binding assay in striatal membranes
Format: biochemical
Settings: Series B; 0.1 μM compound, relative to DAMGO
In short: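 Striatal membranes (200 μg) were preincubated 5 min at 30 °C in HEPES pH 7.5 with 100 mM NaCl, 1 mM MgCl2 and 0.5 nM [35S]GTPγS, then 5 min more with 0.1–10 μM compound. Gαo was immunoprecipitated and bound radioactivity counted by scintillation.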

Row | SMILES | % DAMGO (0.1 μM)
1 | COc1c2c(cc3c1C(CC(=O)CCc1ccc(F)cc1)[N+](C)(C)CC3)OCO2 (stereo not drawn) [Compound B0018] | 70.3%

Same assay, conditions: Series B; 0.1 μM compound; [35S]GTPγS binding to Gαo, striatal membranes

Row | SMILES | MOR agonist activity, percent [35S]GTPγS binding at the stated compound concentration
2 | COc1c2c(cc3c1C(CC(=O)CCc1ccc(F)cc1)[N+](C)(C)CC3)OCO2 (stereo not drawn) [Compound B0018] | 118.8%

Same assay, conditions: Series B; 1 μM compound + 1 μM β-FNA

Row | SMILES | MOR agonist activity, percent [35S]GTPγS binding at the stated compound concentration
3 | COc1c2c(cc3c1C(CC(=O)CCc1ccc(F)cc1)[N+](C)(C)CC3)OCO2 (stereo not drawn) [Compound B0018] | 45.6%

Same assay, conditions: Series B; 1 μM compound + β-FNA, relative to DAMGO + BFNA

Row | SMILES | % DAMGO + BFNA
4 | COc1c2c(cc3c1C(CC(=O)CCc1ccc(F)cc1)[N+](C)(C)CC3)OCO2 (stereo not drawn) [Compound B0018] | 69.1%

Same assay, conditions: Series B; 1 μM compound, relative to DAMGO

Row | SMILES | % DAMGO (1 μM)
5 | COc1c2c(cc3c1C(CC(=O)CCc1ccc(F)cc1)[N+](C)(C)CC3)OCO2 (stereo not drawn) [Compound B0018] | 53.5%

Same assay, conditions: Series B; 1 μM compound; [35S]GTPγS binding to Gαo, striatal membranes

Row | SMILES | MOR agonist activity, percent [35S]GTPγS binding at the stated compound concentration
6 | COc1c2c(cc3c1C(CC(=O)CCc1ccc(F)cc1)[N+](C)(C)CC3)OCO2 (stereo not drawn) [Compound B0018] | 143.0%

Same assay, conditions: Series C-1; 0.1 μM compound, relative to DAMGO

Row | SMILES | % DAMGO (0.1 μM)
7 | Cc1cccc(S(=O)(=O)N2CCC3(CC2)OCCN3S(=O)(=O)c2cccc(C)c2)c1 [Compound C0014] | 82.0%
8 | O=C(c1ccc([N+](=O)[O-])cc1)N1CCC2(CC1)OCCN2S(=O)(=O)c1ccc([N+](=O)[O-])cc1 [Compound C0022] | 113.5%
9 | O=S(=O)(c1ccc(Br)cc1C(F)(F)F)N1CCC2(CC1)OCCN2S(=O)(=O)c1ccc(Br)cc1C(F)(F)F [Compound C0068] | 53.4%

Same assay, conditions: Series C-1; 0.1 μM compound; [35S]GTPγS binding to Gαo, striatal membranes

Row | SMILES | Concentration of FLNA-Binding Compound as Agonist 0.1 μM
10 | Cc1cccc(S(=O)(=O)N2CCC3(CC2)OCCN3S(=O)(=O)c2cccc(C)c2)c1 [Compound C0014] | 144.9%
11 | O=C(c1ccc([N+](=O)[O-])cc1)N1CCC2(CC1)OCCN2S(=O)(=O)c1ccc([N+](=O)[O-])cc1 [Compound C0022] | 194.3%
12 | O=S(=O)(c1ccc(Br)cc1C(F)(F)F)N1CCC2(CC1)OCCN2S(=O)(=O)c1ccc(Br)cc1C(F)(F)F [Compound C0068] | 107.2%

Same assay, conditions: Series C-1; 1 μM compound + 1 μM β-FNA

Row | SMILES | Concentration of FLNA-Binding Compound as Agonist 1 μM + BFNA
13 | Cc1cccc(S(=O)(=O)N2CCC3(CC2)OCCN3S(=O)(=O)c2cccc(C)c2)c1 [Compound C0014] | 76.3%
14 | O=C(c1ccc([N+](=O)[O-])cc1)N1CCC2(CC1)OCCN2S(=O)(=O)c1ccc([N+](=O)[O-])cc1 [Compound C0022] | 13.4%
15 | O=S(=O)(c1ccc(Br)cc1C(F)(F)F)N1CCC2(CC1)OCCN2S(=O)(=O)c1ccc(Br)cc1C(F)(F)F [Compound C0068] | 165.9%

Same assay, conditions: Series C-1; 1 μM compound + β-FNA, relative to DAMGO + BFNA

Row | SMILES | % DAMGO + BFNA
16 | Cc1cccc(S(=O)(=O)N2CCC3(CC2)OCCN3S(=O)(=O)c2cccc(C)c2)c1 [Compound C0014] | 116.1%
17 | O=C(c1ccc([N+](=O)[O-])cc1)N1CCC2(CC1)OCCN2S(=O)(=O)c1ccc([N+](=O)[O-])cc1 [Compound C0022] | 25.7%
18 | O=S(=O)(c1ccc(Br)cc1C(F)(F)F)N1CCC2(CC1)OCCN2S(=O)(=O)c1ccc(Br)cc1C(F)(F)F [Compound C0068] | 307.8%

Same assay, conditions: Series C-1; 1 μM compound, relative to DAMGO

Row | SMILES | % DAMGO (1 μM)
19 | Cc1cccc(S(=O)(=O)N2CCC3(CC2)OCCN3S(=O)(=O)c2cccc(C)c2)c1 [Compound C0014] | 59.2%
20 | O=C(c1ccc([N+](=O)[O-])cc1)N1CCC2(CC1)OCCN2S(=O)(=O)c1ccc([N+](=O)[O-])cc1 [Compound C0022] | 123.2%
21 | O=S(=O)(c1ccc(Br)cc1C(F)(F)F)N1CCC2(CC1)OCCN2S(=O)(=O)c1ccc(Br)cc1C(F)(F)F [Compound C0068] | 83.8%

Same assay, conditions: Series C-1; 1 μM compound; [35S]GTPγS binding to Gαo, striatal membranes

Row | SMILES | Concentration of FLNA-Binding Compound as Agonist 1 μM
22 | Cc1cccc(S(=O)(=O)N2CCC3(CC2)OCCN3S(=O)(=O)c2cccc(C)c2)c1 [Compound C0014] | 153.5%
23 | O=C(c1ccc([N+](=O)[O-])cc1)N1CCC2(CC1)OCCN2S(=O)(=O)c1ccc([N+](=O)[O-])cc1 [Compound C0022] | 328.7%
24 | O=S(=O)(c1ccc(Br)cc1C(F)(F)F)N1CCC2(CC1)OCCN2S(=O)(=O)c1ccc(Br)cc1C(F)(F)F [Compound C0068] | 263.1%

Same assay, conditions: Series C-2; 0.1 μM compound, relative to DAMGO

Row | SMILES | % DAMGO (0.1 μM)
25 | O=[N+]([O-])c1ccc(S(=O)(=O)N2CCC3(CC2)NCCCO3)cc1 [Compound C0045] | 88.3%
26 | CCCCN1CCC2(CC1)OCCN2S(=O)(=O)c1ccc(OC)cc1 [Compound C0102M] | 78.6%
27 | COc1ccc(S(=O)(=O)N2CCC3(CC2)NCCO3)cc1 [Compound C0026] | 107.7%

Same assay, conditions: Series C-2; 0.1 μM compound; [35S]GTPγS binding to Gαo, striatal membranes

Row | SMILES | MOR agonist activity, percent [35S]GTPγS binding at the stated compound concentration
28 | O=[N+]([O-])c1ccc(S(=O)(=O)N2CCC3(CC2)NCCCO3)cc1 [Compound C0045] | 149.2%
29 | CCCCN1CCC2(CC1)OCCN2S(=O)(=O)c1ccc(OC)cc1 [Compound C0102M] | 131.8%
30 | COc1ccc(S(=O)(=O)N2CCC3(CC2)NCCO3)cc1 [Compound C0026] | 207.2%

Same assay, conditions: Series C-2; 1 μM compound + 1 μM β-FNA

Row | SMILES | MOR agonist activity, percent [35S]GTPγS binding at the stated compound concentration
31 | O=[N+]([O-])c1ccc(S(=O)(=O)N2CCC3(CC2)NCCCO3)cc1 [Compound C0045] | 105.3%
32 | CCCCN1CCC2(CC1)OCCN2S(=O)(=O)c1ccc(OC)cc1 [Compound C0102M] | 150.4%
33 | COc1ccc(S(=O)(=O)N2CCC3(CC2)NCCO3)cc1 [Compound C0026] | 21.2%

Same assay, conditions: Series C-2; 1 μM compound + β-FNA, relative to DAMGO + BFNA

Row | SMILES | % DAMGO + BFNA
34 | O=[N+]([O-])c1ccc(S(=O)(=O)N2CCC3(CC2)NCCCO3)cc1 [Compound C0045] | 634.3%
35 | CCCCN1CCC2(CC1)OCCN2S(=O)(=O)c1ccc(OC)cc1 [Compound C0102M] | 316.6%
36 | COc1ccc(S(=O)(=O)N2CCC3(CC2)NCCO3)cc1 [Compound C0026] | 48.3%

Same assay, conditions: Series C-2; 1 μM compound, relative to DAMGO

Row | SMILES | % DAMGO (1 μM)
37 | O=[N+]([O-])c1ccc(S(=O)(=O)N2CCC3(CC2)NCCCO3)cc1 [Compound C0045] | 109.1%
38 | CCCCN1CCC2(CC1)OCCN2S(=O)(=O)c1ccc(OC)cc1 [Compound C0102M] | 122.4%
39 | COc1ccc(S(=O)(=O)N2CCC3(CC2)NCCO3)cc1 [Compound C0026] | 105.6%

Same assay, conditions: Series C-2; 1 μM compound; [35S]GTPγS binding to Gαo, striatal membranes

Row | SMILES | MOR agonist activity, percent [35S]GTPγS binding at the stated compound concentration
40 | O=[N+]([O-])c1ccc(S(=O)(=O)N2CCC3(CC2)NCCCO3)cc1 [Compound C0045] | 238.8%
41 | CCCCN1CCC2(CC1)OCCN2S(=O)(=O)c1ccc(OC)cc1 [Compound C0102M] | 272.0%
42 | COc1ccc(S(=O)(=O)N2CCC3(CC2)NCCO3)cc1 [Compound C0026] | 288.4%

Target: FLNA pentapeptide of SEQ ID NO: 1 (Bn-VAKGL) (Homo sapiens, UniProt P21333)
Experiment: FITC-NLX-based FLNA screening assay (inhibition of FITC-naloxone binding to Bn-VAKGL on streptavidin plates)
Settings: FLNA-binding compound 0.01 μM; 10 nM FITC-NLX; read-out: Percent Binding Inhibition

Row | SMILES | inhibition at 0.01 µM
43 | O=[N+]([O-])c1ccc(S(=O)(=O)N2CCC3(CC2)NCCCO3)cc1 [Compound C0045] | 39.1%
44 | CCCCN1CCC2(CC1)OCCN2S(=O)(=O)c1ccc(OC)cc1 [Compound C0102M] | 52.3%
45 | COc1ccc(S(=O)(=O)N2CCC3(CC2)NCCO3)cc1 [Compound C0026] | 42.3%

Same assay, conditions: FLNA-binding compound 0.1 μM; 10 nM FITC-NLX; read-out: Percent Binding Inhibition

Row | SMILES | inhibition at 0.1 µM
46 | O=[N+]([O-])c1ccc(S(=O)(=O)N2CCC3(CC2)NCCCO3)cc1 [Compound C0045] | 48.9%
47 | CCCCN1CCC2(CC1)OCCN2S(=O)(=O)c1ccc(OC)cc1 [Compound C0102M] | 53.1%
48 | COc1ccc(S(=O)(=O)N2CCC3(CC2)NCCO3)cc1 [Compound C0026] | 44.8%

Same assay, conditions: FLNA-binding compound 1 μM; 10 nM FITC-NLX; read-out: Percent Binding Inhibition

Row | SMILES | inhibition at 1 µM
49 | O=[N+]([O-])c1ccc(S(=O)(=O)N2CCC3(CC2)NCCCO3)cc1 [Compound C0045] | 53.7%
50 | CCCCN1CCC2(CC1)OCCN2S(=O)(=O)c1ccc(OC)cc1 [Compound C0102M] | 56.6%
51 | COc1ccc(S(=O)(=O)N2CCC3(CC2)NCCO3)cc1 [Compound C0026] | 49%

Same assay, conditions: read-out: Percent Binding Inhibition, FLNA-binding compound 0.01 μM; 10 nM FITC-NLX

Row | SMILES | inhibition at 0.01 µM
52 | Cc1cccc(S(=O)(=O)N2CCC3(CC2)OCCN3S(=O)(=O)c2cccc(C)c2)c1 [Compound C0014] | 29.5%
53 | O=C(c1ccc([N+](=O)[O-])cc1)N1CCC2(CC1)OCCN2S(=O)(=O)c1ccc([N+](=O)[O-])cc1 [Compound C0022] | 34.5%
54 | O=S(=O)(c1ccc(Br)cc1C(F)(F)F)N1CCC2(CC1)OCCN2S(=O)(=O)c1ccc(Br)cc1C(F)(F)F [Compound C0068] | 53.7%
55 | COc1c2c(cc3c1C(CC(=O)CCc1ccc(F)cc1)[N+](C)(C)CC3)OCO2 (stereo not drawn) [Compound B0018] | 37.2%

Same assay, conditions: read-out: Percent Binding Inhibition, FLNA-binding compound 0.1 μM; 10 nM FITC-NLX

Row | SMILES | inhibition at 0.1 µM
56 | Cc1cccc(S(=O)(=O)N2CCC3(CC2)OCCN3S(=O)(=O)c2cccc(C)c2)c1 [Compound C0014] | 38.8%
57 | O=C(c1ccc([N+](=O)[O-])cc1)N1CCC2(CC1)OCCN2S(=O)(=O)c1ccc([N+](=O)[O-])cc1 [Compound C0022] | 37.6%
58 | O=S(=O)(c1ccc(Br)cc1C(F)(F)F)N1CCC2(CC1)OCCN2S(=O)(=O)c1ccc(Br)cc1C(F)(F)F [Compound C0068] | 58.6%
59 | COc1c2c(cc3c1C(CC(=O)CCc1ccc(F)cc1)[N+](C)(C)CC3)OCO2 (stereo not drawn) [Compound B0018] | 43.7%

Same assay, conditions: read-out: Percent Binding Inhibition, FLNA-binding compound 1 μM; 10 nM FITC-NLX

Row | SMILES | inhibition at 1 µM
60 | Cc1cccc(S(=O)(=O)N2CCC3(CC2)OCCN3S(=O)(=O)c2cccc(C)c2)c1 [Compound C0014] | 40%
61 | O=C(c1ccc([N+](=O)[O-])cc1)N1CCC2(CC1)OCCN2S(=O)(=O)c1ccc([N+](=O)[O-])cc1 [Compound C0022] | 43.9%
62 | O=S(=O)(c1ccc(Br)cc1C(F)(F)F)N1CCC2(CC1)OCCN2S(=O)(=O)c1ccc(Br)cc1C(F)(F)F [Compound C0068] | 62.2%
63 | COc1c2c(cc3c1C(CC(=O)CCc1ccc(F)cc1)[N+](C)(C)CC3)OCO2 (stereo not drawn) [Compound B0018] | 47.6%
